Measured values as given in US20080292619A1, “Pharmaceutical Composition Containing Meltrin Antagonist” (MOCHIDA PHARMACEUTICAL CO., LTD., priority 2004, published 2008).
In the oligonucleotide strings, read from the 5' end, every base follows the letter of its sugar. An asterisk marks phosphorothioate; unmarked linkages are phosphodiester. Other units and linkages are bracketed, terminal groups are in braces. A string of capitals states the bases alone. d = 2'-deoxy (DNA)

Tests used:
[1] = test system: human preadipocyte; assay: Effect of antisense compound on adipocyte proliferation and differentiation (Adipo Red); type: cell-based; conditions: human adipocyte differentiation
Method: First, human preadipocyte (Human Preadipocytes-sq POIETICS #PT-5020, Sanko Junyaku Co., Ltd.) was suspended in growth medium (#PT-8200, Sanko Junyaku Co., Ltd.), and after adding the suspension to a 96 well culture plate at 1×10^4 cells/well/100 μL, the cells were cultured overnight at 37° C. in the presence of 5% CO2.
The preadipocyte was cultured overnight, and after washing the preadipocyte twice with serum-free DMEM, Opti-MEM was added at 80 μL/well.
Gene transfection reagent Lipofectin was diluted with Opti-MEM to 20 μg/mL, and the dilution was allowed to stand at room temperature for 30 minutes. Next, the antisense oligodeoxynucleotide synthesized as described above was heated at 90° C. for 3 minutes, and after quenching on ice, diluted with Opti-MEM to a concentration 10 times higher than the final concentration. Equal amounts of the Lipofectin in Opti-MEM and the antisense oligodeoxynucleotide in Opti-MEM were mixed, and the mixture was incubated at room temperature for 15 minutes and added to 96 well plate at 20 μL/well. After incubating at 37° C. for 4 hours in the presence of 5% CO2, it was used for examination as described below.
The differentiation medium was prepared by using growth medium (#PT-8200, Sanko Junyaku Co., Ltd.) and supplement kit (PGM Single Quots, #PT-9500, Sanko Junyaku Co., Ltd.) according to the instruction of the kit. Next, the culture supernatant containing the Lipofectin was removed from the 96 well plate prepared in the above (2), and the plate was washed twice with serum-free DMEM, and the differentiation medium prepared as described above was added at 100 μL/well. The plate was then incubated at 37° C. for 5 days to 15 days in the presence of 5% CO2.
Accumulation of the neutral fat in the adipocyte was determined by fluorometry using Adipo Red stain.
After taking the 96 well plate out of the CO2 incubator, the plate was allowed to stand until it reached room temperature. The plate was centrifuged at 300 g (1200 rpm) for 10 minutes at room temperature to remove the medium. Next, after gently washing with PBS (SIGMA) at 200 μL/well, PBS was added to the well at 200 μL/well. Next, Adipo Red Assay Reagent (Adipo Red, Cat. #PT-7009, Lot.3F0497, A Cambrex Company) was added at 5 μL/well, and the plate was allowed to stand at room temperature for at least 10 minutes to thereby stain the neutral fat accumulated in the adipocyte. The fat accumulation was determined by measuring fluorescence intensity in a fluorometer at an excitation wavelength of 485 nm and an emission wavelength of 535 nm.
The suppression rate of the adipocyte differentiation was calculated by converting the fluorescence intensity of the well transfected with the antisense compound in relation to the fluorescence intensity of the well without transfection with the antisense compound which was assumed as 100%. The result was rated “+” when the suppression rate was at least 25%, “++” when the suppression rate was at least 50%, and “+++” when the suppression rate was at least 75%.

[2] = test system: human meltrin α RNA; assay: Suppression of human meltrin α expression by antisense compound in RD cell (real time PCR); type: cell-based; conditions: for suppression rate of expression, 50 nM / suppression rate of expression, 200 nM: RD cell, corrected by GAPDH; for RNase H-dependent activity of suppressing the meltrin α expression: 2′-methoxy modified form compared to the phosphorothioate form
Summary of the method: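 RD cells transfected with heat-denatured antisense oligodeoxynucleotide plus Lipofectin in Opti-MEM for 4 h at 37° C, then cultured 18 h. Meltrin α RNA quantified by TaqMan RT-PCR against plasmid standard curve, GAPDH-corrected; suppression vs untreated cells, rated +/++/+++ for ≥30/50/70%.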

Substance	Score (suppressing the human adipocyte differentiation) [1]	suppression rate of expression, 50 nM [2]	suppression rate of expression, 200 nM [2]	RNase H-dependent activity of suppressing the meltrin α expression [2]
H005: tgcgtcgcgcgcgcgccgtt (TGCGTCGCGCGCGCGCCGTT; antisense; DNA, all phosphorothioate, methylation of C not given here)	++ (“++” when the suppression rate was at least 50%)	++ (“++” when the suppression rate was at least 50%)	++ (“++” when the suppression rate was at least 50%)	
H130: tgacagggttggaagccacg (TGACAGGGTTGGAAGCCACG; antisense; DNA, all phosphorothioate, methylation of C not given here)	+++ (“+++” when the suppression rate was at least 75%)	++ (“++” when the suppression rate was at least 50%)	+++ (“+++” when the suppression rate was at least 70%)	reduced activity of suppressing the meltrin α expression
H131: caaggtggccgaggtgagcc (CAAGGTGGCCGAGGTGAGCC; antisense; DNA, all phosphorothioate, methylation of C not given here)	+++ (“+++” when the suppression rate was at least 75%)	++ (“++” when the suppression rate was at least 50%)	+++ (“+++” when the suppression rate was at least 70%)	reduced activity of suppressing the meltrin α expression
H133 + 2: tcggtgggtaggaatctggc (TCGGTGGGTAGGAATCTGGC; antisense; DNA, all phosphorothioate, methylation of C not given here)	+ (“+” when the suppression rate was at least 25%)	++ (“++” when the suppression rate was at least 50%)		
H136 + 19: ctgagggacattcaggccgt (CTGAGGGACATTCAGGCCGT; antisense; DNA, all phosphorothioate, methylation of C not given here)	+ (“+” when the suppression rate was at least 25%)	+++ (“+++” when the suppression rate was at least 70%)		
H139 + 14: taggtgcacgtggggcccgg (TAGGTGCACGTGGGGCCCGG; antisense; DNA, all phosphorothioate, methylation of C not given here)	++ (“++” when the suppression rate was at least 50%)	++ (“++” when the suppression rate was at least 50%)		
H143 + 15: gcttctgaggggggtttggc (GCTTCTGAGGGGGGTTTGGC; antisense; DNA, all phosphorothioate, methylation of C not given here)	++ (“++” when the suppression rate was at least 50%)	+++ (“+++” when the suppression rate was at least 70%)		
H144 + 18: ggccagaggatctgcaggca (GGCCAGAGGATCTGCAGGCA; antisense; DNA, all phosphorothioate, methylation of C not given here)	++ (“++” when the suppression rate was at least 50%)	+++ (“+++” when the suppression rate was at least 70%)		reduced activity of suppressing the meltrin α expression
H151: gtgtgggtggatctgggcac (dG*dT*dG*dT*dG*dG*dG*dT*dG*dG*dA*dT*dC*dT*dG*dG*dG*dC*dA*dC)	++ (“++” when the suppression rate was at least 50%)	++ (“++” when the suppression rate was at least 50%)	+++ (“+++” when the suppression rate was at least 70%)	reduced activity of suppressing the meltrin α expression
